The values below come from patent publication US7678386B2, “Liposomes coated with selected antibodies that bind to aminophospholipids” (Board of Regents the University of Texas, priority 2002, dated 2010).

Test [1] can be described thus: Reactivity with plastic-immobilized phospholipids (ELISA), panel. It counts as binding. The method, then:
Phospholipids were dissolved in n-hexane to a concentration of 50 μg/ml. 100 μl of this solution was added to wells of 96-well microtiter plates. After evaporation of the solvent in air, the plates were blocked for 2 h with 10% fetal bovine serum diluted in DPBS containing 2 mM Ca^2+ (binding buffer).
9D2 antibody or annexin V were diluted in the binding buffer in the presence of 10% serum at an initial concentration of 6.7 nM. Serial two-fold dilutions were prepared in the plates (100 μl per well). The plates were then incubated for 2 h at room temperature. The plates were washed and the 9D2 and annexin V were detected by goat anti-rat IgM conjugated to HRP and rabbit anti-human annexin V followed by goat anti-rabbit IgG conjugated to HRP (all diluted 1:1000), respectively. Secondary reagents were detected by using chromogenic substrate OPD followed by reading plates at 490 nm using a microplate reader (Molecular Devices, Palo Alto, Calif.).
The specificity of the 9D2 antibody binding was validated by using control rat IgM of irrelevant specificity (Pharmingen, San Diego, Calif.). The specificity of annexin V binding to phospholipids, which is Ca^2+-dependent, was determined by diluting the reagent in the DPBS containing 5 mM EDTA. Additional negative controls consisted of washing the plates with the binding buffer containing 0.2% of a detergent Tween 20. This treatment extracts lipids, thus removing the phospholipid that was absorbed to plastic. Neither 9D2 antibody nor annexin V bound to detergent-washed plates.

Test [2] concerns vascular endothelium of tumors and normal organs. As to the kind of experiment: Detection of anionic phospholipids in tumor bearing mice in vivo (9D2, annexin V). On the set-up: species or system mouse. The procedure: For localization studies, 2×10^7 L540 human Hodgkin's lymphoma cells or 1×10^7 cells of other tumor types were injected subcutaneously into the right flank of SCID mice (Charles River. Wilmington, Mass.). Tumors were allowed to reach a volume of 0.4-0.7 cm^3. A minimum of three animals per group was used. Studies were replicated at least three times.
Female nu/nu or SCID mice were purchased from Charles River. MDA-MB-231 human mammary carcinoma cells were implanted into the mammary fat pad according to a published protocol (Price. 1996). Briefly, mice were anesthetized and a 5-mm incision was made in the skin over the lateral thorax. The mammary pad was exposed to ensure the correct site for injection of 1×10^7 MDA-MB-231 cells re-suspended in 0.1 ml of saline.
To detect externally-positioned phospholipids, methods were performed essentially as previously described (Example V; Ran et al., 1998). Tumor-bearing SCID mice were injected intravenously with either 50 μg of 9D2 or biotinylated 9D2 antibody or 100 μg of biotinylated annexin V. Sixty min later mice were sacrificed and their blood circulation was exsanguinated and perfused with heparinized saline as previously described (Burrows et al., 1992). All major organs and tumor were harvested and snap-frozen for preparation of cryosections.
Sections were blocked with PBS containing 10% serum. To prevent loss of phospholipids during slide processing, detergents and organic solvents were omitted from blocking and washing buffers. Rat IgM was detected using goat anti rat IgM (μspecific)-HRP conjugate followed by development with carbazole or DAB (Fries et al., 1993). Biotinylated reagents were detected by streptavidin conjugated to HRP.
Tumor sections derived from mice injected with saline or rat IgM of irrelevant specificity served as negative controls. Additional controls consisted of incubating the slides in 1% Triton solution or in acetone for 10 min. These treatments extract phospholipids. No signal was detected under these conditions. The number of positive vessels per high power field was determined at magnification of ×100. At least 10 fields per section were examined and the average percentage of positive vessels was calculated. Staining of the sections by this method for the presence of 9D2 or annexin V detects cells having externalized anionic phospholipids that were accessible for binding by the reagents in vivo.
Structures with localized 9D2 antibody or annexin V were identified as blood vessels by morphological appearance on DAB-stained sections and by co-incident staining with the pan-endothelial cell marker, MECA 32 on serial sections of frozen tissues. Quantification on DAB-stained sections was done by counting vessels stained by MECA 32, 9D2 or annexin V in serial sections of a tumor. Six slides of each tumor type derived from 6 mice injected with 9D2 antibody, control rat IgM or annexin V were examined. At least 10 random fields per section (0.317 mm^2/field) were scored in blinded fashion by two independent observers. The mean numbers and standard errors of vessels stained by 9D2, annexin V or MECA 32 were calculated. The mean number of 9D2 or annexin V-positive vessels determined in each tumor type group was compared to the mean number of MECA 32-positive vessels in the same tumor group. The percentage of 9D2 or annexin V-positive vessels was calculated.

The subject of test [3] is vascular endothelium of MDA-MB-231 tumors. As to the kind of experiment: Double staining study, orthotopic MDA-MB-231 tumors. Type of test: in vivo, mouse. Particulars: biotinylated reagent i.v., one hour. The method, then: In further studies, mice bearing MDA-MB-231 tumors (0.3-0.7 cm^3 in volume) were injected intravenously with 50 μg of biotinylated 9D2, control IgM or annexin V (six mice per group). Biotinylated reagents were first incubated with streptavidin-Cy3 conjugate, washed in PBS. then incubated with MECA 32 antibody followed by FITC-tagged anti-rat IgG secondary antibody. Single images, taken with appropriate filters for Cy3 (red) and FITC (green) fluorescence respectively, were captured by digital camera and transferred to a computer. […] The same method was used to analyze tumors from mice injected with control rat IgM or saline. The percentage of vessels with localized 9D2 or annexin V was calculated as follows: mean number of yellow vessels per field divided by mean number of green (total) vessels multiplied by 100.
Double staining studies were also performed in which mice bearing orthotopic MDA-MB-231 breast tumors were injected intravenously with biotinylated 9D2 antibody, biotinylated control IgM or biotinylated annexin V. One hour later, the mice were exsanguinated, and their tumors were removed and frozen sections were cut. The tumor sections were then stained with Cy3-conjugated streptavidin to detect the biotinylated proteins and with FITC-conjugated MECA32 to detect vascular endothelium. […]

For test [4], the system named is blood vessels of L540 tumors. As to the kind of experiment: Annexin V inhibition of coaguligand-induced thrombosis in vivo. Details: species or system mouse. The method, then:
The ability of Annexin V to inhibit coaguligand-induced thrombosis in vivo was examined in L540 Hodgkin-bearing SCID mice. Tumors were grown in mice and two mice per group (tumor size 0.5 cm in diameter) were injected intravenously via the tail vein with one of the following reagents: a) saline; b) 100 μg of Annexin V; c) 40 μg of anti-VCAM-1•tTF; d) 100 μg of Annexin V followed 2 hours later by 40 μg of anti-VCAM-1•tTF.
Four hours after the last injection mice were anesthetized and perfused with heparinized saline. Tumors were removed, fixed with 4% formalin, paraffin-embedded and stained with hematoxylene-eosin. The number of thrombosed and non-thrombosed blood vessels was counted and the percentage of thrombosis was calculated.

With “Annexin V: high affinity PS binding ligand; natural ligand of anionic phospholipids and PE”, the “binding to anionic phospholipids in the presence of 5 mM EDTA” value in test [1] was “abolished”. Moreover, in test [1], the “binding to heparin, heparan sulfate or double or single stranded DNA” value was “did not bind detectably”. In test [1] (10% serum), the “order of strength of binding to phospholipids in ELISA” value is recorded as “PI>PS=PE=PA=CL>PG”. Moreover, the “PS-positive vessels of MECA 32-stained vessels (mean ±SE)” value in test [2] (B16 tumor) is reported as 21.3 ± 6.6%; in test [2] (L540cy tumor), 16.7 ± 3.9%; in test [2] (MDA-MB-231 tumor), 45.3 ± 5.6%; in test [2] (MDA-MB-231 tumor, listed as annexin V), 40%; in test [2] (NCI-H358 tumor) it was 15%. Moreover, the “vascular localization in normal organs” value in test [2] (nine of ten normal organs examined (kidney tubules non-specific)) is on record as “No vascular localization”. The “MECA 32 positive vessels that bound the reagent” value in test [3] was “About 40%”. Further, the “coaguligand-induced intravascular thrombosis and changes in tumor cell morphology” value in test [4] (100 μg Annexin V 2 hours before 40 μg coaguligand) is “completely abolished”. The tumor morphology entry in test [4] (100 μg Annexin V alone) is “did not alter tumor morphology”.
